Measurements published in PubChem BioAssay AID179 (DTP/NCI, 2004).
pEC50, pIC50: −log10 of the molar value. The source made the active and inactive calls.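 How the source made its calls: active means compounds giving half or more protection of infected cells from virus-caused growth loss, again on retest; inactive means the rest.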 Where a SMILES comes first, the peptide text is derived from it. The star is where a group is joined. Boc = CC(C)(C)OC(=O)*

System: CEM cells HIV-1 protection, formazan growth assay
Assay: NCI AIDS Antiviral Assay
Conditions: for pIC50: measured here: growth of uninfected CEM cells
In short: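 Soluble formazan readout of cell growth; CEM cells ± HIV-1; 5 drug concs. ≥50% protection → retest; ≥50% again = moderately active; reproducible 100% = confirmed active.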

Row | Structure (SMILES) | pEC50 | pIC50 | outcome
1 | COC(=O)[C@H](Cc1ccccc1)NP(=O)(OCCC#N)OCC1OC(n2cc(C)c(=O)[nH]c2=O)CC1N=[N+]=[N-] (stereo partly specified) | 6.29 | < 3.70 | 
2 | O=C(O)CCSCCCCCCCCCCCCSCCC(=O)O | < 4.04 | < 4.04 | 
3 | CCOC(=O)Cn1c(=O)c2nc(SC)sc2n(-c2ccccc2)c1=S | < 3.70 | < 3.70 | 
4 | CCN(CCO)c1ccc(N=O)cc1 | < 3.70 | 4.94 | 
5 | COc1ccc(C(C(N)=O)N2CCCC2)cc1 (stereo unspecified) | < 3.70 | < 3.70 | 
6 | NC1=NN(c2ccccc2)C(=O)C1/C(=N\NC(=O)c1cc2ccccc2cc1O)C(=O)Nc1ccc(Cl)cc1 (stereo unspecified) | < 5.16 | < 5.16 | 
7 | O=C(Nc1ccccc1F)c1c(O)nc2sccn2c1=O | < 3.70 | 4.29 | 
8 | COc1cc(C(Cc2ccnc3ccccc23)Cc2ccnc3ccccc23)ccc1N(C)C | < 4.79 | 5.50 | 
9 | CC1OC(c2ccccc2)=CC(OCc2ccccc2)[C@H]1OCc1ccccc1 (stereo partly specified) | < 3.70 | 4.04 | 
10 | O=C1C=C[C@@]23C=Cc4ccccc4C2CC(O)C1C3 (stereo partly specified) | < 3.61 | 3.87 | 
11 | CC(=O)NNc1nc(C)c(C(=O)NNC(=O)C(=O)Nc2ccccc2C#N)s1 | < 4.05 | 4.29 | 
12 | NC(N)=NS(=O)(=O)c1ccc(NC(=O)c2ccc3[nH]c4ccccc4c(=O)c3c2)cc1 | < 3.70 | < 3.70 | 
13 | C#CCCCC(=C)C[C@@H]1OC(=O)[C@H](C)[C@@H]1O | < 3.70 | < 3.70 | 
14 | CC[C@@H](CCCC[C@@H]1CC[C@H]2CC(=O)C[C@@H]12)OC | < 3.70 | 3.73 | 
15 | NN=C(CC(O)(C(F)(F)Cl)C(F)(F)Cl)CC(O)(C(F)(F)Cl)C(F)(F)Cl | < 3.70 | 5.16 | 
16 | CSc1nc2c(c(=O)n1C)N=C(c1ccccc1)[C@H](C(CC(=O)c1ccccc1)c1ccccc1)C(c1ccccc1)N2 (stereo partly specified) | < 3.70 | 4.32 | 
17 | CC1CC[C@]2(C(=O)O)CCC3(C)C(=CCC4[C@@]5(C)CC[C@H](OS(=O)(=O)c6ccccc6)C(C)(C)C5CC[C@]43C)[C@@H]2[C@H]1C (stereo partly specified) |  |  | inactive
18 | C=C1C(=O)C23[C@H](O)C1CC[C@H]2[C@]12COC3(O)[C@@H](O)[C@@H]1C(C)(C)CC[C@@H]2O | < 3.46 | 5.71 | 
19 | CC1=CCC[C@@H]2C1(C)CCC(C)[C@@]2(C)CC1=CC(=O)C=CC1=O (stereo partly specified) | < 4.30 | 4.94 | 
20 | O=C1CC2OCC=C3CN4CCC5(C(=O)O)C(N1)C2C3CC45 (stereo unspecified) | < 3.09 | < 3.09 | 

Row | Structure (SMILES) | pEC50 | pIC50 | outcome
21 | COC(=O)c1ccccc1NC(=O)C(=O)CC(=O)c1ccccc1NC1=CC(=O)C(=O)c2ccccc21 | < 4.56 | 5.33 | 
22 | CCc1n[nH]c(=O)n1O | < 3.70 | < 3.70 | 
23 | Cc1cc(C)nc(NS(=O)(=O)c2ccc(N=c3c4ccccc4n(-c4ccccc4)c4ccccc34)cc2)n1 |  |  | inactive
24 | O=C1C=C(N2CCN(CCO)CC2)C(=O)c2c(N3CCN(CCO)CC3)cc(N3CCN(CCO)CC3)nc21 | < 3.80 | < 3.80 | 
25 | CCN(CC)CC(C(=O)Nc1c(C)cccc1C)/C(C)=N\NC(=O)C[N+](C)(C)C (stereo unspecified) | < 4.39 | < 4.39 | 
26 | C=C[C@@H](OCOCC[Si](C)(C)C)[C@@H](CC)OC(CCCOC(=O)C(C)(C)C)OC (stereo partly specified) | < 3.70 | < 3.70 | 
27 | O=S1CCS(=O)CCS(=O)CC1 (stereo unspecified) | < 4.78 | < 4.78 | 
28 | O=C1c2ccccc2S(=O)(=O)N1Sc1ccccc1[N+](=O)[O-] | < 3.70 | 4.77 | 
29 | O=[N+]([O-])c1ccc2c(c1)n1c(N3CCCC3)[n+]3ccccc3c1c1c3cccc[n+]3c(N3CCCC3)n21 | 4.14 | 4.11 | 
30 | COC(=O)C(=O)C(CC(=O)Nc1c(C)cccc1C)C(=O)OC (stereo unspecified) | < 3.11 | < 3.11 | 
31 | COC(=O)C(=O)Nc1cc2c3c(c1)Oc1cccc4c1C3(C)c1c(cccc1O2)O4 | 4.55 | 3.90 | 
32 | O=S(=O)(c1ccccc1)S(=O)(=O)c1ccccc1 | < 4.32 | < 4.32 | 
33 | c1ccc(N=C2c3ccsc3C(=Nc3ccccc3)c3ccsc32)cc1 | < 3.70 | 5.60 | 
34 | O=C(Nc1ccccc1)c1cc2cc(N=Nc3ccc(Br)cc3)ccc2oc1=O |  |  | inactive
35 | COc1ccccc1NC(=O)/C(C=NC(=S)C(N)=S)=C(\C)O |  |  | inactive
36 | c1ccc(OCc2nnc3n2N=C(c2ccccc2)CS3)cc1 |  |  | inactive
37 | O=C1CCC2CCOc3ccc(O)c1c32 (stereo unspecified) |  |  | inactive
38 | CCCCCCN(CCCCCC)C(=O)C1=C(C)NC(C)=C(C(=O)N(CCCCCC)CCCCCC)C1 | < 3.70 | 4.02 | 
39 | CCCCCCCCCCNCCSSc1ccccc1 | < 3.70 | 5.37 | 
40 | CCCCOCc1cc(CN2CCN(C)CC2)c(O)c2ncccc12 | < 3.84 | 5.06 | 

Row | Structure (SMILES) | pEC50 | pIC50 | outcome
41 | C=CC1(CC)/C(=N\O)C(CC)(CC)C(=O)N1O (stereo unspecified) | < 2.98 | < 2.98 | 
42 | Cc1ccc2c(n1)C(N1CCCC1)=CC(=O)C2=O |  |  | inactive
43 | Cc1cn(CC2OC(CO)C(CO)O2)c(=O)[nH]c1=O (stereo unspecified) | < 3.34 | < 3.34 | 
44 | CC(Nc1cc(Cl)cc(Cl)c1)c1ccncc1 (stereo unspecified) | < 3.70 | 4.80 | 
45 | COc1ccccc1/C=C1\N=C(C)OC1=O |  |  | inactive
46 | CC(C)COC(=O)CS(=O)(=O)O | < 3.70 | < 3.70 | 
47 | CC(CN(C)C)OC(=O)c1cc2ccccc2[nH]1 (stereo unspecified) | < 3.70 | < 3.70 | 
48 | COC(=O)c1c(C)cccc1C1CN=NC12Cc1cccc(C)c1C2=O (stereo unspecified) | < 3.90 | 4.09 | 
49 | CCN1CCC(O)(c2ccc(Cl)c(Cl)c2)C(C(=O)c2ccc(Cl)c(Cl)c2)C1 (stereo unspecified) | < 4.17 | 4.41 | 
50 | COC(=O)C(Cc1c[nH]c2ccccc12)NC(=O)C(Cc1c[nH]c2ccccc12)NC(=O)C(Cc1c[nH]c2ccccc12)NC(=O)C(Cc1c[nH]c2ccccc12)NC(=O)C(Cc1c[nH]c2ccccc12)NC(=O)C(Cc1c[nH]c2ccccc12)NC(=O)C(Cc1c[nH]c2ccccc12)NC(=O)OC(C)(C)C (stereo unspecified) (Boc-WWWWWWW-OMe; configuration not given here) | < 4.00 | 4.23 | 
51 | Cc1cn(C2CC3C(COC(C)(C)N3O)O2)c(=O)[nH]c1=O (stereo unspecified) | 5.11 | < 3.70 | 
52 | CCCCCCCC(=O)OC[C@H](C[As](=O)(O)O)OC(=O)CCCCCCC | < 3.70 | 5.11 | 
53 | CC1CCCC(C)[N+]1=C(Nc1cccc(Cl)c1)c1ccccc1 (stereo unspecified) | < 3.70 | 3.98 | 
54 | OCCN=C1c2ccccc2C2C(c3ccccc31)C1c3ccccc3C(=NCCO)c3ccccc3C21 (stereo unspecified) | < 3.70 | 4.62 | 
55 | O=C1/C(=C/c2ccccc2F)Cc2ccccc21 | < 4.66 | < 4.66 | 
56 | COC1=NS(=O)(=O)C2(O1)c1ccccc1-c1ccccc12 | < 3.93 | 4.05 | 
57 | CCCCCCCCCCCCCCCCOC[C@H](COC(c1ccccc1)(c1ccccc1)c1ccccc1)O[P+](=S)OC (stereo partly specified) | < 4.00 | 4.24 | 
58 | CC(C)=CC1c2[nH]c3ccccc3c2CC(C(=O)O)N1C(=O)OC(C)(C)C(Cl)(Cl)Cl (stereo unspecified) |  |  | inactive
59 | Cc1ccccc1CN1C2=NCCN2C(=O)C2=C1CCN(S(=O)(=O)c1ccc(Cl)c(S(N)(=O)=O)c1)C2 | < 3.70 | 4.03 | 
60 | Cc1cn(C2CC(N=[N+]=[N-])C(COC(=O)CCCCCCCCCc3ccccc3)O2)c(=O)[nH]c1=O (stereo unspecified) | 6.89 | 3.96 | 
